Reference: PubChem BioAssay (NCI)
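Values below derive from 48-hour exposures of cells grown in 96-well plates, with endpoints linearly interpolated between the two concentrations bracketing the appropriate inhibition level. Definition used: TGI = concentration required for complete inhibition of growth.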

Experiments:
Test in all cases: DTP human tumour cell line panel, 48 h
HL-60(TB) leukemia = system: HL-60(TB) leukemia
HCT-15 colon = system: HCT-15 colon
SF-539 CNS = system: SF-539 CNS
SK-OV-3 ovarian = system: SK-OV-3 ovarian
OVCAR-5 ovarian = system: OVCAR-5 ovarian
SW-620 colon = system: SW-620 colon
COLO 205 colon = system: COLO 205 colon
SN12C renal = system: SN12C renal
TK-10 renal = system: TK-10 renal
MOLT-4 leukemia = system: MOLT-4 leukemia
SNB-19 CNS = system: SNB-19 CNS
KM20L2 colon = system: KM20L2 colon
DMS 114 small cell lung = system: DMS 114 small cell lung
UACC-62 melanoma = system: UACC-62 melanoma
A549 NSCLC = system: A549 NSCLC
UACC-257 melanoma = system: UACC-257 melanoma
SR leukemia = system: SR leukemia
HOP-62 NSCLC = system: HOP-62 NSCLC
DLD-1 colon = system: DLD-1 colon
CCRF-CEM leukemia = system: CCRF-CEM leukemia
SF-268 CNS = system: SF-268 CNS
K-562 leukemia = system: K-562 leukemia
NCI-H460 lung = system: NCI-H460 lung
SK-MEL-5 melanoma = system: SK-MEL-5 melanoma
U251 CNS = system: U251 CNS
RXF 393 renal = system: RXF 393 renal
A498 renal = system: A498 renal
HOP-92 NSCLC = system: HOP-92 NSCLC
MALME-3M melanoma = system: MALME-3M melanoma
NCI-H522 lung = system: NCI-H522 lung
XF 498 CNS = system: XF 498 CNS
NCI-H226 lung = system: NCI-H226 lung
HT29 colon = system: HT29 colon
SNB-75 CNS = system: SNB-75 CNS
CAKI-1 renal = system: CAKI-1 renal
KM12 colon = system: KM12 colon
SF-295 CNS = system: SF-295 CNS
SNB-78 CNS = system: SNB-78 CNS
NCI-H23 lung = system: NCI-H23 lung
LOX IMVI melanoma = system: LOX IMVI melanoma
OVCAR-4 ovarian = system: OVCAR-4 ovarian
M14 melanoma = system: M14 melanoma
M19-MEL melanoma = system: M19-MEL melanoma
HCT-116 colon = system: HCT-116 colon
IGROV1 ovarian = system: IGROV1 ovarian
RXF-631 renal = system: RXF-631 renal
UO-31 renal = system: UO-31 renal
OVCAR-3 ovarian = system: OVCAR-3 ovarian
RPMI-8226 leukemia = system: RPMI-8226 leukemia
LXFL 529 NSCLC = system: LXFL 529 NSCLC
DMS 273 small cell lung = system: DMS 273 small cell lung

Measured: TGI

O=c1cc2cc(O)[nH]c(=O)c2c(O)[nH]1
> 100 µM: all assays above
